The subject of series [1] is Vesicular stomatitis virus (VSV) particles encoding luciferase and pseudotyped with EboV GP. The experiment in a line: microbe, parasite or virus in culture. The format is cell-based, Ebola virus. Particulars: for inhibition at 10 µM: compound concentration 10 μM; for inhibition at 2 µM: compound concentration 2 μM.

The values that follow come from US11479571B2 (priority 2016, dated 2022).

What is called melting point is the temperature of the solid-liquid transition. By inhibition is commonly meant the percentage by which the read-out fell short of the control. High values mean strong suppression, low ones little suppression.

Some results are limits rather than exact numbers.

Turning to `O=C(OCc1ccccc1)N1CCN(C(=O)c2ccc3nc(-c4ccccn4)[nH]c3c2)CC1`, the melting point was found to be 165 °C.

In turn, `FC(F)(F)c1ccc(CN2CCN(Cc3ccc4nc(-c5ccccc5)[nH]c4c3)CC2)cc1` showed a melting point of 178 °C. Regarding `FC(F)(F)c1ccc(CN2CCN(Cc3ccc4nc(-c5cccnc5)[nH]c4c3)CC2)cc1`, the melting point came out at 138 °C. Same read-out and setting: next, `O=C(c1ccc2nc(-c3ccccc3)[nH]c2c1)N1CCN(Cc2ccc(C(F)(F)F)cc2)CC1`: 220 °C; `O=C(c1ccc2nc(C(c3ccccc3)c3ccccc3)[nH]c2c1)N1CCN(Cc2ccc(C(F)(F)F)cc2)CC1`: 148 °C; `FC(F)(F)Oc1cccc(CN2CCN(Cc3ccc4nc(C(c5ccccc5)c5ccccc5)[nH]c4c3)CC2)c1`: 86 °C. Same read-out and setting: then `FC(F)(F)Oc1cccc(CN2CCN(Cc3ccc4nc(-c5cccnc5)[nH]c4c3)CC2)c1`, with 110 °C; and `FC(F)(F)Oc1cccc(CN2CCN(Cc3ccc4nc(-c5ccccn5)[nH]c4c3)CC2)c1`, with 65 °C; and `O=C(c1ccc2nc(C(c3ccccc3)c3ccccc3)[nH]c2c1)N1CCN(Cc2cccc(OC(F)(F)F)c2)CC1`, with 76 °C.

As to `O=C(c1ccc2nc(-c3ccccn3)[nH]c2c1)N1CCN(Cc2cccc(OC(F)(F)F)c2)CC1`, the melting point came out at 100 °C. With `FC(F)(F)Oc1ccc(CN2CCN(Cc3ccc4nc(-c5cccnc5)[nH]c4c3)CC2)cc1`, the melting point is 88 °C. In the case of `FC(F)(F)Oc1ccc(CN2CCN(Cc3ccc4nc(-c5ccccn5)[nH]c4c3)CC2)cc1`, the melting point was found to be 64 °C. On the same count and under the same terms, next, `O=C(c1ccc2nc(C(c3ccccc3)c3ccccc3)[nH]c2c1)N1CCN(Cc2ccc(OC(F)(F)F)cc2)CC1`: 120 °C.

As to `O=C(c1ccc2nc(-c3ccccn3)[nH]c2c1)N1CCN(Cc2ccc(OC(F)(F)F)cc2)CC1`, the melting point amounted to 190 °C.

For `Cc1ccc(NC(=O)N2CCN(Cc3ccc4nc(-c5cccnc5)[nH]c4c3)CC2)cc1`, the melting point was 174 °C. Same read-out and setting: then `O=C(Nc1ccc(C(F)(F)F)cc1)N1CCN(Cc2ccc3nc(C(c4ccccc4)c4ccccc4)[nH]c3c2)CC1`, with 172 °C.

`O=C(COc1ccc(Cl)cc1)N1CCN(Cc2ccc3nc(C(c4ccccc4)c4ccccc4)[nH]c3c2)CC1` had a melting point of 194 °C.

Regarding `O=C(COc1ccc(Cl)cc1)N1CCN(Cc2ccc3nc(-c4ccccn4)[nH]c3c2)CC1`, the melting point was found to be 138 °C.

As for `COC(=O)c1ccc(COc2ccccc2CN2CCN(Cc3ccc4nc(-c5ccccc5)[nH]c4c3)CC2)cc1` [Compound E11, N1-[[2-[(4-methoxycarbonylphenyl)methoxy]phenyl]methyl]-N4-[(2-phenyl-benzimidazol-5-yl)methyl]-piperazine], the inhibition at 10 µM in series [1] stood at 95%. On the same count and under the same terms, then `COC(=O)c1ccc(COc2ccccc2CN2CCN(Cc3ccc4nc(-c5ccccn5)[nH]c4c3)CC2)cc1` [Compound E14, N1-[[2-[(4-methoxycarbonylphenyl)methoxy]phenyl]methyl]-N4-[[2-(2-pyridyl)-benzimidazol-5-yl]methyl]-piperazine], with 80%. In series [1], `COC(=O)c1ccc(COc2ccccc2CN2CCN(Cc3ccc4nc(-c5ccc(C(F)(F)F)cc5)[nH]c4c3)CC2)cc1` [Compound E15, N1-[[2-[4-(trifluoromethyl)phenyl]-benzimidazol-5-yl]methyl]-N4-[[2-[(4-methoxycarbonylphenyl)methoxy]phenyl]methyl]-piperazine] displayed an inhibition at 2 µM of 2% and an inhibition at 10 µM of 93.5%. For the compound `COC(=O)c1ccc(COc2ccccc2CN2CCN(Cc3ccc4nc(-c5cccc(C(F)(F)F)c5)[nH]c4c3)CC2)cc1` [Compound E16, N1-[[2-[3-(trifluoromethyl)phenyl]-benzimidazol-5-yl]methyl]-N4-[[2-[(4-methoxycarbonylphenyl)methoxy]phenyl]methyl]-piperazine], the melting point is 102 °C. In addition, in series [1], the inhibition at 2 µM is 64.1% and the inhibition at 10 µM came out at 91.6%. For `COC(=O)c1ccc(COc2ccccc2CN2CCN(C(=O)c3ccc4nc(-c5ccccc5)[nH]c4c3)CC2)cc1` [Compound E17, N1-[[2-[(4-methoxycarbonylphenyl)methoxy]phenyl]methyl]-N4-(2-phenyl-benzimidazole-5-carbonyl)-piperazine], the melting point worked out at 255 °C. Further, the inhibition at 10 µM in series [1] is less than 20%. Regarding `COC(=O)c1ccc(COc2ccccc2CN2CCN(C(=O)c3ccc4nc(C(c5ccccc5)c5ccccc5)[nH]c4c3)CC2)cc1` [Compound E18, N1-(2-benzhydryl-benzimidazole-5-carbonyl)-N4-[[2-[(4-methoxycarbonylphenyl)methoxy]phenyl]methyl]-piperazine], the melting point was 196 °C. Moreover, in series [1], the inhibition at 10 µM is less than 20%. `COC(=O)c1ccc(COc2ccccc2CN2CCN(C(=O)c3ccc4nc(-c5cccnc5)[nH]c4c3)CC2)cc1` [Compound E19, N1-[[2-[(4-methoxycarbonylphenyl)methoxy]phenyl]methyl]-N4-[2-(3-pyridyl)-benzimidazole-5-carbonyl]-piperazine]: the inhibition at 10 µM in series [1] was less than 20%. With `COC(=O)c1ccc(COc2ccccc2CN2CCN(C(=O)c3ccc4nc(-c5ccccn5)[nH]c4c3)CC2)cc1` [Compound E20, N1-[[2-[(4-methoxycarbonylphenyl)methoxy]phenyl]methyl]-N4-[2-(2-pyridyl)-benzimidazole-5-carbonyl]-piperazine], the melting point turned out to be 96 °C. For the same compound, the inhibition at 10 µM in series [1] was less than 20%.

On to `FC(F)(F)c1ccc(CN2CCN(Cc3ccc4nc(C(c5ccccc5)c5ccccc5)[nH]c4c3)CC2)cc1` [Compound E22, N1-[(2-benzhydryl-benzimidazol-5-yl)methyl]-N4-[4-(trifluoromethyl)benzyl]-piperazine], for which the melting point was found to be 236 °C. In series [1], this compound gave an inhibition at 2 µM of less than 20% and an inhibition at 10 µM of 80%. The corresponding values for `FC(F)(F)Oc1cccc(CN2CCN(Cc3ccc4nc(-c5ccccc5)[nH]c4c3)CC2)c1` [Compound E29, N1-[3-(trifluoromethoxy)benzyl]-N4-[(2-phenyl-benzimidazol-5-yl)methyl]-piperazine] are 80 °C, less than 20% and 80%. In series [1], `O=C(Nc1ccc(C(F)(F)F)cc1)N1CCN(Cc2ccc3nc(-c4ccccn4)[nH]c3c2)CC1` [Compound E52, N1-[[2-(2-pyridyl)-benzimidazol-5-yl]methyl]-N4-[[4-(trifluoromethyl)phenyl]carbamoyl]-piperazine] returned an inhibition at 2 µM of 64.3% and an inhibition at 10 µM of 82.9%. For `CCOP(=O)(Cc1ccc(COc2ccccc2CN2CCN(Cc3ccc4nc(-c5cccc(C(F)(F)F)c5)[nH]c4c3)CC2)cc1)OCC` [Compound E57], in series [1], the inhibition at 10 µM was less than 20%. As to `CCOP(=O)(Cc1cccc(COc2ccccc2CN2CCN(Cc3ccc4nc(-c5cccc(C(F)(F)F)c5)[nH]c4c3)CC2)c1)OCC` [Compound E59], in series [1], the inhibition at 10 µM was less than 20%.
